Assay results published in patent US6479662B2, “Antitumor dibenzofluorene derivatives” (Board of Regents, The University of Texas System, priority 1998, dated 2002).
Entries after “also recorded” stand apart in the source; their conditions may differ.

What was measured:
[1] = tested on: MCF-7 human breast carcinoma; assay: In vitro cytotoxicity, MTT assay, 72 h continuous exposure; type: cell-based; details: average over runs, value above 50 = 50% inhibition not achieved at 50 μg/ml
Description: (§1) Every dibenzofluorene derivative was tested, as will be described below, against six to eight cultured, tumor cell lines of human and/or animal origin, at least half of which were selected from the NCI panel of test tumors. In each experiment, Adriamycin (ADR) was used as a maximally positive control.
(§2) Data are IC50 values (MTT assay) reported as μg/ml for 72 hours continuous exposure to the drug. Drugs were prepared in DMSO:PEG300 (1:1). Further, dilutions were made in a cell culture medium with fetal bovine serum.
(§3) Compounds were evaluated for solubility characteristics in vehicles which would be appropriate for use in cell culture. The compounds were added to the cell lines under continuous culture for 72 hours. Inhibition of growth relative to control cell culture was determined by the MTT method at the end of 72 hours. This is a test of the relative ability of a compound to inhibit cell growth not survival. However, inhibition of growth may reflect cell death and/or cytostasis.

[2] = tested on: P388/0 murine lymphatic leukemia; assay: as above; type: cell-based; details: average over runs, value above 50 = 50% inhibition not achieved at 50 μg/ml
Description: as §1, §2, §3

BRO human melanoma = assay: as above; type: cell-based; details: average over runs, value above 50 = 50% inhibition not achieved at 50 μg/ml
Description: as §1, §2, §3

[3] = tested on: HL-60 human promyelocytic leukemia; assay: as above; type: cell-based; details: average over runs, value above 50 = 50% inhibition not achieved at 50 μg/ml
Description: as §1, §2, §3

[4] = tested on: HT-29 human colon adenocarcinoma; assay: as above; type: cell-based; details: average over runs, value above 50 = 50% inhibition not achieved at 50 μg/ml
Description: as §1, §2, §3

[5] = tested on: OVCAR 3 human ovarian carcinoma; assay: as above; type: cell-based; details: average over runs, value above 50 = 50% inhibition not achieved at 50 μg/ml
Description: as §1, §2, §3

[6] = tested on: six to eight cultured tumor cell lines; assay: In vitro cytotoxicity against the panel of tumor lines (overall activity grouping); type: cell-based, human and/or animal; details: for anti-tumor activity (in words): summary over the tumor lines; for change in activity relative to Tx-37 (in words): structural modification of Tx-37; for activity group: grouped as determined by the majority of the results over all tumor lines; for change in activity relative to Tx-38 (in words): structural modification of Tx-38
Description: as §1, §2
Additional tumor lines against which the drugs were tested in certain series included L1210 (leukemia), PC3 (prostate) and several others.
as §3
ADR invariably produced the described anti-tumor effect against all tumor lines at concentrations lower than 1 μg/ml of culture media. The effect of the Tx-compounds was divided into five activity groups as described below. In all cases, if activity against a single tumor line differed radically from that against all others, notation was made of this specificity but the agent was grouped as determined by the majority of the results.

Structure (SMILES) | average IC50 MCF-7 [1] [µg/mL] | average IC50 P388/0 [2] [µg/mL] | average IC50 BRO (BRO human melanoma) [µg/mL] | average IC50 HL-60 [3] [µg/mL] | average IC50 HT-29 [4] [µg/mL] | average IC50 OVCAR-3 [5] [µg/mL] | anti-tumor activity (in words) [6] | change in activity relative to Tx-37 (in words) [6] | activity group [6] | IC50 ([6]; Homo sapiens, all tumor lines, μg/ml of culture media, positive control, read-out: concentration producing the described anti-tumor effect against all tumor lines) [µg/mL] | change in activity relative to Tx-38 (in words) [6]
O=C(CCC(=O)N1CCCCC1)Nc1ccc2c(c1)Cc1ccccc1-2 [Tx-69] | 28.9 | 41.5 | – | – | – | – | – | – | – | – | –
O=C(CCC(=O)N1CCCCC1)Nc1cc2c(c3ccccc13)-c1ccc3ccccc3c1C2 [Tx-38] | 22.8 | 42.9 | 46.4 | 14.9 | 34.4 | 39.5 | no significant anti-tumor activity; also recorded: little or no activity | – | – | – | –
CN1CCN(C(=O)CCC(=O)Nc2cc3c(c4ccccc24)-c2ccc4ccccc4c2C3)CC1.Cl [Tx-49, N-[11′-(13′H-Dibenzo[a,g]-fluorenyl)]-4-(4′N methyl-piperazinyl hydrochloride)-butane-1,4-dicarboxiamide] | 5.7 | 3.1 | 2.5 | 2.5 | 2.5 | 2.8 | – | minor change in the activity | – | – | –
CN1CCN(C(=O)CCC(=O)Nc2cc3c(c4ccccc24)-c2ccc4ccccc4c2C3=O)CC1 [Tx-50] | 18.1 | 3.7 | 11.2 | 4.0 | 10.0 | 6.6 | significant activities | slight diminution in activity | – | – | –
CN1CCN(C(=O)CCC(=O)Nc2ccc3c(c2)Cc2ccccc2-3)CC1 [Tx-68, N-[2′-(9′H-fluorenyl)]-4-(4′N methyl-piperazinyl)-butane-1,4-dicarboxiamide] | 18.2 | – | – | – | – | 31.7 | – | – | GROUP E (These agents produced some anti-tumor effect at doses above 10 μg/ml but less than 20 μg/ml) | – | –
COc1cccc2c1C(=O)c1c(O)c3c(c(O)c1C2=O)C[C@@](O)(C(=O)CO)C[C@@H]3O[C@H]1C[C@H](N)[C@H](O)[C@H](C)O1 [ADR, Adriamycin, reference compound] | – | – | – | – | – | – | – | – | – | < 1 | –
O=C(CCC(=O)N1CCCCC1)Nc1cc2c(c3ccccc13)-c1ccc3ccccc3c1C2O (centres unmarked) [Tx-67] | 8.9 | 9.2 | 14.7 | 5.6 | – | 8.8 | – | – | – | – | greatly increased the activity
O=C(CCC(=O)N1CCCCC1)Nc1cc2c(c3ccccc13)-c1ccc3ccccc3c1C2=O [Tx-51] | 27.0 | – | 47.2 | 32.0 | – | 16.2 | little or no activity | – | – | – | –
CN1CCN(C(=O)CCC(=O)Nc2cc3c(c4ccccc24)-c2ccc4ccccc4c2C3O)CC1 (centres unmarked) [Tx-66] | 5.9 | 2.1 | 6.0 | 2.0 | – | 4.2 | – | minor change in the activity | – | – | –
CN1CCN(C(=O)C=CC(=O)Nc2cc3c(c4ccccc24)-c2ccc4ccccc4c2C3)CC1 [Tx-47] | 20.2 | 15.4 | 1.2 | 1.2 | 16.7 | 1.1 | – | reduced its activity significantly | GROUP C (These agents were effective against one-third to one-half of all tumor lines tested at levels less than 10 μg/ml) | – | –
O=C(C=CC(=O)N1CCCCC1)Nc1cc2c(c3ccccc13)-c1ccc3ccccc3c1C2 [Tx-48, N-[11′-13′H-Dibenzo[a,g]-fluorenyl]-4-(1′-piperidinyl)-but-2-ene-1,4-dicarboxiamide] | 18.3 | – | 22.6 | 30.1 | – | 23.4 | – | – | – | – | little or no change
CN1CCN(C(=O)CCC(=O)Nc2cc3c(c4ccccc24)-c2ccc4ccccc4c2C3)CC1 [Tx-37, N-[11′-(13′H-Dibenzo[a,g]-fluorenyl)]-4-(4′N methyl-piperazinyl)-butane-1,4-dicarboxiamide] | 3.0 | 2.0 | 1.8 | 1.6 | 1.9 | 1.9 | consistent, highly positive effects; also recorded: most active compound; also recorded: significant activities | – | – | – | –
